Each block holds one molecule with its values, some of them ahead of it.
Experiments:
[1] = Tissue distribution of folates 24 h after oral administration of folate forms to rat pups, with and without FR Ab (Example 3); format: in vivo; conditions: for Folate (mean), Cerebellum / Folate (mean), Cerebrum / Folate (mean), Kidney / Folate (mean), Liver: PND 21 rat pups, 4 mg/kg oral, 24 h
Experimental: To determine tissue distribution of orally administered folate forms in young rat pups and study the effect of folate receptor antibodies on this distribution. PND 21 rat pups weighing about 50 g were administered folate forms orally at a dose of 4 mg/kg. Animals were euthanized after 24 h and tissues collected for analyzing total methylfolate in each tissue to provide a measure of normal distribution.

[2] = Folate absorption in serum after single high-dose oral administration of different folates (Example 1)
Experimental: For this study, 4 mg/kg folate was administered as a single dose to 250-300 g male Wistar rats. […] For each form of folate 4 time points of 30 min, 1 h, 2 h and 4 h were evaluated. For each time point 2 rats were used. The folate form dissolved in 0.5 ml buffered saline was administered orally using a blunt needle attached to a 1 ml syringe. The rats were euthanized by CO2 inhalation.
Blood was drawn cardiac puncture, allowed to clot for 30 min, serum separated, diluted in equal volume of 4% ascorbate pH 7.2 and kept frozen at −20 C. Folate forms in the serum was determined by HPLC and the peaks were quantified by comparing to known standards as described below.
Folate standards (5-MTHF, FA, THF and Formyl-THF) and 13C-labeled stable isotope internal standards (13C5-5-MTHF, 13C5-FA and 13C-Formyl-THF) were obtained from Schircks Laboratories (Switzerland). Formic acid, ascorbic acid and dithiothreitol (DTT) were obtained from Fluka and Optima LC-MS grade methanol from Fisher Scientific. Stock standards for each folate metabolite and internal standards were prepared as 1 mmol/L solutions in water containing 2 mg/mL ascorbic acid and stored at −80° C. Microtiter plates used for were purchased from NUNC.
Liquid chromatography electrospray ionization mass spectrometry (LC-ESI-MS/MS) analysis of plasma 5-MTHF, FA, THF, Formyl-THF was performed on a Sciex 5500QTRAP mass spectrometer (Foster City, Calif., USA) coupled with a Shimadzu ultra-high pressure Nexera chromatograph system (Kyoto, Japan). The MS/MS experiments were performed under positive electrospray ionization (+ESI) with multiple-reaction monitoring (MRM) using a Turbolon Spray electrospray source operating at a voltage of 5.5 kV and desolvation temperature of 500° C. The calibration curve was prepared in water containing 2 mg/mL ascorbic acid over a range of 12.5-400 nmol/L for each folate analyte.
Sample preparation involved combining 50 µl of blank, standard, control or sample with 10μ1 62.5 mM dithiothreitol, 20 mg/ml ascorbic acid and 2.5 μM 13C5-5-MTHF, 13C5-FA, 13C-Formyl-THF in 1.5 mL Eppendorf tubes, mixed by vortex and incubated for 10 minutes at room temperature in the dark. Next, samples were deproteinized with 5 volumes of methanol containing 2 mg/ml of ascorbic acid and vortexed and centrifuged at 14800 rpm for 10 minutes. Supernatant was loaded in a 96-well microtiter plate for analysis. The samples were analyzed following injection of 10 μL of extract on a Synergi Hydro 4μ 150×3 mm with a 4×2 mm SecurityGuard column (Phenomenex, Calif., USA) maintained at 40° C. (Phenomenex) and eluted in a gradient with buffer A (100% water with 0.1% formic acid) and buffer B (100% Methanol with 0.1% formic acid). The flow rate was 0.5 mL/min, with a gradient over a total run time of 6 min: 0.0-2.0 min, 0-100% B; 2.5 min, 100% B; 2.6-6.0 min, 0% B.
Total analytical analysis, including column re-equilibration, was 6 minutes. Eluent flow from the column was diverted to waste at the beginning and end of each run and was only directed to the source for the period from 1.5-3.5 minutes. The LC-MS/MS data was acquired and processed using Analyst 1.5.2 software (Sciex).
Values reported include both D- and L-forms.

[3] = Total folates in serum 24 h after oral administration of folate forms (Example 2); format: in vivo, rats; set-up: Total Folates in Serum (total 5-MTHF D- and L- plus folic acid): unit not given here; conditions: 4 mg/kg oral, 24 h
Experimental: (§1) This study evaluated the difference in folate absorption in non-pregnant rats, pregnant rats, pregnant rats injected with a control antibody, and pregnant rats injected with antibody to the folate receptor alpha. Eight (8) rats were assigned to each group for a total of thirty-two (32) rats. Two rats within each group were administered a single oral dose of PGA, 5-methyl-(6S)-THF, folinic acid or 5-formyl-(6S)-THF as a liquid solution and sacrificed at 24-hours to evaluate folate absorption patterns. The total amount of each form of folate administered to each rat was 4 mg/kg.
Serum was withdrawn immediately before the rat was sacrificed. For extraction of folate from serum, an aliquot of the serum was diluted in 3 volumes of phosphate buffer pH 5.5, placed in a boiling water bath for 10 min, cooled, the protein precipitate separated by centrifugation and the clear supernatant was assayed for folate concentration.

[4] = Tissue distribution of folates 24 h after oral administration of folate forms (Example 2); format: in vivo, rats; conditions: for Total 5-MTHF + PGA in Brain: derived from cortex and cerebellum
Experimental: as §1
Additional analyses were performed in various tissues of the pregnant and non-pregnant rats. For tissues other than serum, each tissue was collected, weighed and stored at −20 C. For the folate assay each tissue was suspended in 3 volumes of phosphate buffer containing 2% ascorbic acid pH 7.4 and homogenized using a polytron probe. An aliquot of this homogenate was diluted 10 fold in PO4 buffer PH 5.5 containing 0.2% ascorbic acid, in a glass tube, sealed and placed in a boiling water bath for 10 min. The tube was cooled to room temperature, precipitate removed by centrifugation and the clear supernatant assayed for folate. Brain concentrations were derived from cortex and cerebellum.

[5] = parenteral 5 mg twice weekly or oral 0.5-20 mg/kg/day; cited from earlier work
[6] = 25 mg liquid elixir, oral; cited from earlier work
[7] = serum, 4 mg/kg single oral dose, 0.5 hr
[8] = serum, 4 mg/kg single oral dose, 1 hr
[9] = serum, 4 mg/kg single oral dose, 2 hr
[10] = serum, 4 mg/kg single oral dose, 4 hr
[11] = non-pregnant rats, without antibody, 4 mg/kg oral, 24 h
[12] = pregnant rats, + Control IgG, 4 mg/kg oral, 24 h
[13] = pregnant rats, + FRAb, 4 mg/kg oral, 24 h
[14] = pregnant rats, w/o IgG, 4 mg/kg oral, 24 h
[15] = male, Wistar, rat, in vivo, po, 4 mg/kg
[16] = male, Wistar, rat, in vivo, po, 4 mg/kg, 0.5 h
[17] = male, Wistar, rat, in vivo, po, 4 mg/kg, 1 h
[18] = male, Wistar, rat, in vivo, po, 4 mg/kg, 2 h
[19] = male, Wistar, rat, in vivo, po, 4 mg/kg, 4 h

Compound: CN1c2c(nc(N)[nH]c2=O)NC[C@@H]1CNc1ccc(C(=O)N[C@@H](CCC(=O)O)C(=O)O)cc1 [5-methyl-(6S)-THF, 5-methyl-(6S)-tetrahydrofolate]
Folate (mean), Cerebellum ([1]; + FRAb (100 ug IP 24 h prior)): 60.7 ng/mg | Folate (mean), Cerebrum ([1]; + FRAb (100 ug IP 24 h prior)): 3.8 ng/mg | Folate (mean), Kidney ([1]; + FRAb (100 ug IP 24 h prior)): 116.4 ng/mg | Folate (mean), Liver ([1]; + FRAb (100 ug IP 24 h prior)): 250.34 ng/mg | Folate (mean), Cerebellum ([1]; no FRAb): 26.1 ng/mg | Folate (mean), Cerebrum ([1]; no FRAb): 4.3 ng/mg | Folate (mean), Kidney ([1]; no FRAb): 86.6 ng/mg | Folate (mean), Liver ([1]; no FRAb): 158.5 ng/mg | THF [2, 7]: 4.4 ng/mL | Total Uptake [2, 7]: 188.5 ng/mL | 5-MTHF ([2]; serum, 4 mg/kg single oral dose, 0.5 hr, D- and L-forms): 184.1 ng/mL | THF [2, 8]: 9.0 ng/mL | Total Uptake [2, 8]: 223.8 ng/mL | 5-MTHF ([2]; serum, 4 mg/kg single oral dose, 1 hr, D- and L-forms): 214.8 ng/mL | THF [2, 9]: 8.7 ng/mL | Total Uptake [2, 9]: 258.4 ng/mL | 5-MTHF ([2]; serum, 4 mg/kg single oral dose, 2 hr, D- and L-forms): 249.7 ng/mL | 5-FoTHF [2, 10]: 5.1 ng/mL | THF [2, 10]: 19.6 ng/mL | Total Uptake [2, 10]: 216.2 ng/mL | 5-MTHF ([2]; serum, 4 mg/kg single oral dose, 4 hr, D- and L-forms): 191.4 ng/mL | Total Folates in Serum (total 5-MTHF D- and L- plus folic acid) ([3]; Non-pregnant rats): 60.0 | Total Folates in Serum (total 5-MTHF D- and L- plus folic acid) ([3]; pregnant rats, Control Ab + Form): 143.3 | Total Folates in Serum (total 5-MTHF D- and L- plus folic acid) ([3]; pregnant rats, FRAb + Form): 190.9 | Total Folates in Serum (total 5-MTHF D- and L- plus folic acid) ([3]; pregnant rats, Form Only): 85.5 | Total 5-MTHF + PGA in Cerebellum [4, 11]: 1.9 | Total 5-MTHF + PGA in Cortex [4, 11]: 1.9 | Total 5-MTHF + PGA in Kidney [4, 11]: 36.4 | Total 5-MTHF + PGA in Liver [4, 11]: 75.4 | Total 5-MTHF + PGA in Ovary [4, 11]: 7.2 | Total 5-MTHF + PGA in Brain [4, 11]: 1.9 | Total 5-MTHF + PGA in Embryo [4, 12]: 2.0 ng/mg | Total 5-MTHF + PGA in Kidney [4, 12]: 20.3 ng/mg | Total 5-MTHF + PGA in Liver [4, 12]: 148.5 ng/mg | Total 5-MTHF + PGA in Ovary [4, 12]: 14.9 ng/mg | Total 5-MTHF + PGA in Placenta [4, 12]: 2.3 ng/mg | Total 5-MTHF + PGA in Brain [4, 12]: 3.2 ng/mg | Total 5-MTHF + PGA in Embryo [4, 13]: 1.9 ng/mg | Total 5-MTHF + PGA in Kidney [4, 13]: 64.9 ng/mg | Total 5-MTHF + PGA in Liver [4, 13]: 148.0 ng/mg | Total 5-MTHF + PGA in Ovary [4, 13]: 27.0 ng/mg | Total 5-MTHF + PGA in Placenta [4, 13]: 2.1 ng/mg | Total 5-MTHF + PGA in Brain [4, 13]: 3.7 ng/mg | Total 5-MTHF + PGA in Embryo [4, 14]: 4.6 ng/mg | Total 5-MTHF + PGA in Kidney [4, 14]: 25.5 ng/mg | Total 5-MTHF + PGA in Liver [4, 14]: 58.6 ng/mg | Total 5-MTHF + PGA in Ovary [4, 14]: 6.6 ng/mg | Total 5-MTHF + PGA in Placenta [4, 14]: 6.4 ng/mg | Total 5-MTHF + PGA in Brain [4, 14]: 2.4 ng/mg

concentration at 0.5 h [2, 15]: 80.1 ng/mL | concentration at 1 h [2, 15]: 55.9 ng/mL | concentration at 2 h [2, 15]: 27.5 ng/mL | concentration at 4 h [2, 15]: 21.7 ng/mL | 5-MTHF [2, 16]: 109.7 ng/mL | THF [2, 16]: 5.5 ng/mL | Total Uptake [2, 16]: 195.3 ng/mL | 5-MTHF [2, 17]: 115.7 ng/mL | THF [2, 17]: 5.9 ng/mL | Total Uptake [2, 17]: 177.4 ng/mL | 5-MTHF [2, 18]: 103.3 ng/mL | THF [2, 18]: 5.1 ng/mL | Total Uptake [2, 18]: 135.9 ng/mL | 5-MTHF [2, 19]: 120.7 ng/mL | THF [2, 19]: 7.2 ng/mL | Total Uptake [2, 19]: 149.6 ng/mL | THF concentration relative to an equal dose of 5-formyl-6S-THF ([2]; rat, in vivo, po, 4 mg/kg): less than one fifth | tissue uptake of the unnatural D-isomer in ovary, brain, cerebellum and cortex ([4]; non-pregnant rats without folate receptor antibody): significant
Compound: Nc1nc2c(c(=O)[nH]1)N(C=O)C(CNc1ccc(C(=O)N[C@@H](CCC(=O)O)C(=O)O)cc1)CN2 (stereo partly drawn) [Folinic acid, 5-formyl-tetrahydrofolate]
change of folates in the brain on antibody administration ([1]; antibody-treated pups vs pups without antibody): an increase in folates in the brain is observed | tolerability [5]: tolerated | AUC0-24h, 5-Formyl-THF (Strep. faecalis activity) [6]: 135 ± 80 ng·h/mL | AUC0-24h, 5-Methyl-THF (arithmetic difference) [6]: 1929 ± 542 ng·h/mL | AUC0-24h, Total folates (l-casei activity) [6]: 2063 ± 587 ng·h/mL | AUC0-inf, 5-Formyl-THF (Strep. faecalis activity) [6]: 140 ± 81 ng·h/mL | AUC0-inf, 5-Methyl-THF (arithmetic difference) [6]: 2012 ± 567 ng·h/mL | AUC0-inf, Total folates (l-casei activity) [6]: 2149 ± 612 ng·h/mL | Cmax, 5-Formyl-THF (Strep. faecalis activity) [6]: 51 ± 50 ng/mL | Cmax, 5-Methyl-THF (arithmetic difference) [6]: 367 ± 87 ng/mL | Cmax, Total folates (l-casei activity) [6]: 393 ± 96 ng/mL | t1/2, 5-Formyl-THF (Strep. faecalis activity) [6]: 9.5 ± 4.6 h | t1/2, 5-Methyl-THF (arithmetic difference) [6]: 6.0 ± 1.9 h | t1/2, Total folates (l-casei activity) [6]: 6.0 ± 1.9 h | tmax, 5-Formyl-THF (Strep. faecalis activity) [6]: 1.22 ± 0.583 h | tmax, 5-Methyl-THF (arithmetic difference) [6]: 2.37 ± 0.483 h | tmax, Total folates (l-casei activity) [6]: 2.33 ± 0.533 h

From US20210393636A1, “TREATMENT OF CNS AND DEVELOPMENTAL DISORDERS USING HIGH DOSE 5-FORMYL-(6S)-TETRAHYDROFOLATE” (priority 2019, published 2021)
